Laboratory results reported in patent US20260250262A1, “NEW COMPOUND AND PHARMACEUTICAL COMPOSITION COMPRISING SAME” (SAMJIN PHARMACEUTICAL CO., LTD., priority 2023, published 2026).

Experiments:
[1] = target: T1, Recombinant NAMPT protein (Homo sapiens, UniProt P43490); assay: NAMPT enzyme inhibition assay (BPS Bioscience NAMPT Inhibitor Screening Assay Kit); assay type: biochemical; conditions: 30 min pre-incubation, 2 h at 30° C., fluorescence
T1 construct: purchased BPS bioscience #7176-1
Method: Recombinant NAMPT protein was added to each well of a black 96-well plate, and dilution buffer was added to a blank well instead of NAMPT protein. A 5× concentrated compound solution was added and pre-incubated at room temperature (approximately 22° C.) for 30 minutes before the start of the reaction so that the compound and protein might bind before the enzyme reaction. At this time, the concentration of NAMPT protein was adjusted and used according to the enzyme activity of each protein lot within the final concentration range of 4-10 ng/μl, and the test compound was serially diluted at a ratio of 1:3 from 1000 nM to 1 nM, and experiments were conducted with n=2 for about seven concentrations. […] The NAMPT enzyme activity (%) was calculated by subtracting the measurement value of the blank well without NAMPT protein from the measurement value of all wells, and then taking the measurement value of the control well without the compound as 100%.

HCT-116 cell lines = assay: Cellular NAD measurement assay (NAD/NADH-Glo); assay type: cell-based; conditions: Homo sapiens; HCT-116, 24 hours treatment, intracellular NAD+/NADH level
Method: With regard to HCT-116 cell lines, the decrease in intracellular NAD+ and NADH levels due to the inhibition of NAMPT enzyme activity by compounds was evaluated using NAD/NADH-Glo™ Assay (Promega, G9072) from Promega. The cells were incubated using DMEM (Gibco, 11995-065) medium containing 10% FBS. The HCT-116 cells were incubated for 24 hours after being distributed at a density of 2,500 cells per well in a 96-well plate, and were treated with the drugs using serum-free DMEM. First, the compounds were dissolved in 100% dimethyl sulfoxide (DMSO), and then diluted in the culture medium so that the final concentration of DMSO might reach 0.5%, and treated with the drugs. The final concentration range of the compounds was 0.1 nM to 100 nM. After that, they were further incubated for 24 hours under conditions of 37° C. and CO2 5%. To conduct the NAD/NADH-Glo™ Assay, the culture medium of drug-treated cells was removed, 50 μL of DPBS was treated per well, and left at room temperature for five minutes. The required amount of NAD/NADH-Glo™ Detection Reagent (Reconstituted Luciferin Detection Reagent 1 mL, Reductase 5 μL, Reductase Substrate 5 μL, NAD Cycling Enzyme 5 μL, NAD Cycling Substrate 25 μL) was prepared according to the manufacturer's manual and treated in an amount of 50 μL per well. After incubating for two minutes at 400 rpm in a plate shaker for cell lysis, the cells were incubated for 30 minutes at room temperature, and luminescence was measured. NAD+/NADH levels were calculated by subtracting the measurement value of the blank well without cells from the measurement value of all wells and taking the 0.5% DMSO-treated control as 100%.

[2] = test system: HCT-116 (colorectal cancer); assay: Tumor cytotoxicity assay (MTT), HCT-116; assay type: cell-based; conditions: Homo sapiens, HCT-116, 72 hours
Method: (§1) First, the compounds were prepared in 100% dimethyl sulfoxide (DMSO) at concentrations of 0.02 μM to 200 μM, and then diluted in the culture medium so that the final concentration of DMSO might reach 0.5%, and treated with the drugs. The final concentration range of the compounds was 0.1 nM to 1000 nM. After that, they were further incubated for 72 hours under conditions of 37° C. and CO2 5%. […] The cell viability (%) was relatively determined by subtracting the reference 650 nm optical density (O.D.) from the 570 nm O.D., and the 0.5% DMSO-treated control was set as 100% as the standard.

NCI-N87 (gastric cancer) = assay: Tumor cytotoxicity assay (MTT), NCI-N87; assay type: cell-based; conditions: Homo sapiens, NCI-N87, 72 hours
Method: as §1

T1 sequence (P43490 whole entry): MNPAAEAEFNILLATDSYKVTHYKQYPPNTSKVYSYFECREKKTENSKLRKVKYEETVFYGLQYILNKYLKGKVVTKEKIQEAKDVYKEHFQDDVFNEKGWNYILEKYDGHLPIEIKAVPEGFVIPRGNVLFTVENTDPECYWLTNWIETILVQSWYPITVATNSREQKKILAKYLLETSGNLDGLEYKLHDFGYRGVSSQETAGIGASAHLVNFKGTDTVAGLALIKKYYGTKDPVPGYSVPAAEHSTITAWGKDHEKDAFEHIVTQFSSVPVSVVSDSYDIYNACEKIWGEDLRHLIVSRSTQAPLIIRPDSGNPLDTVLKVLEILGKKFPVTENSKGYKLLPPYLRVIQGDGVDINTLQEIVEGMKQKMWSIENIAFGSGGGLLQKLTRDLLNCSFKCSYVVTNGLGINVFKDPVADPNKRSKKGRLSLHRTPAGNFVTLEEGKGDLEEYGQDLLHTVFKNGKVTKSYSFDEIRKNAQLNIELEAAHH

Compound	IC50 [1] [nM]	IC50 (HCT-116 cell lines) [nM]	CC50 [2] [nM]	CC50 (NCI-N87 (gastric cancer)) [nM]
O=C(NCCc1cccnc1)Nc1ccc(-c2ccc(N3CCNCC3)cc2)c(C#Cc2ccc(F)cc2)c1 [Compound 13, 1-(2-((4-fluorophenyl)ethynyl)-4′-(piperazin-1-yl)-[1,1′-biphenyl]-4-yl)-3-(2-(pyridin-3-yl)ethyl)urea]	< 500	≤ 10	< 30	< 30
Cc1nc2cc(-c3ccc(NC(=O)NCCc4cccnc4)cc3C#Cc3ccc(F)cc3)ccc2c(=O)n1CCN [Compound 186]	< 500	≤ 10	< 30	30 to 100
O=C(NCc1ccn2ccnc2c1)Nc1ccc(-c2ccncc2)c(C#Cc2ccc(C3CCNCC3)cc2)c1 [Compound 187]	< 500	≤ 10	< 30	< 30
Cc1nc2cc(-c3ccc(NC(=O)NCCc4cccnc4)cc3C#Cc3ccc(F)cc3)ccc2c(=O)[nH]1 [Compound 14]	< 500	≤ 10	< 30	< 30
